These are literature values, as cited in US6939987B2, “Method for producing Aspartame derivative, method for purifying the same, crystals thereof and uses of the same” (Ajinomoto Co., Inc., priority 1999, dated 2005).

The conditions of the series: relative to sucrose; reported in International Patent Publication WO94/11391.

Consider `COC(=O)[C@H](Cc1ccccc1)NC(=O)[C@H](CC(=O)O)NCCC(C)(C)C` [N-[N-(3,3-dimethylbutyl)-L-α-aspartyl]-L-phenylalanine 1-methyl ester], for which the sweetening potency is 10000 times that of sucrose.
